Measurements published in patent US6462086B1, “Non-malignant disease treatment with Ras antagonists” (Ramot University Authority for Applied Research and …, priority 1999, dated 2002).

Tests used:
lymphocytes of EAE mice = assay: In vitro mitogenic response (LPS, PLP 139-151 peptide) of lymph node lymphocytes of EAE mice; type: cell-based, mouse; settings: 25 microM FTS; lymphocytes of EAE mice day 10
[1] = Solubility in water and saline; type: physicochemical
Source text: In these formulations, the alkyl gallate, etc., is present in an amount of from 0.02% to about 0.05%, and the citric or phosphoric acid is present in an amount of about 0.01%. These formulations are suitable for parenteral administraiton.
In one embodiment of the present invention, both of these shortcomings are overcome by formulating the agent in cyclodextrin. This technology is the subject of U.S. Pat. Nos. 5,681,828 and 5,935,941. Cyclodextrins are a group of compounds consisting of, or derived from, the three parent cyclodextrins—alpha-, beta- and gamma-cyclodextrins. Alpha-, beta- and gamma-cyclodextrins are simple oligosaccharides consisting of six, seven or eight anhydroglucose residues, respectively, connected to macrocyles by alpha (1 to 4) glycosidic bonds. Each of the glucose residues of a cyclodextrin contains one primary (O6) and two secondary hydroxyls (O2 and O3) which can be substituted, for example, methylated. Many cyclodextrin preparations in practical use are mixtures of chemically individual derivatives in which only a part of hydroxy groups were substituted and which differ in number and position of these substituents.

EAN in Lewis rats [2] = assay: Experimental autoimmune neuritis (EAN) in Lewis rats, clinical score and rotarod; type: in vivo, rat
[3] = test system: Balb-C mice immunized with ApoH; assay: Autoantibodies in Balb-C mice immunized with ApoH (induced APS model); type: in vivo, mouse; settings: 9 per group
Protocol: Similar antibody assays were performed with the sera of Balb-C mice (9 per group) immunized with ApoH 10 μg in complete Freund's adjuvant with boosts given 2 and 6 weeks later in incomplete adjuvant.

[4] = test system: lymphocyte surface markers (CD3, CD4, CD8, IA-k, Vb17, CD62L); assay: FACS analysis of surface markers on lymph node lymphocytes of EAE mice; type: in vivo, mouse; settings: percentages of positively stained cells among 10,000; EAE mice + FTS, day 10
Protocol: Single cell suspensions were prepared from the draining lymph nodes of mice in which EAE was induced, on day 10 post immunization for EAE-induction. Cells were incubated on ice, for 30 min with 20 μl of the monoclonal FITC-conjugated anti-CD62L, anti-IA-k ([…]) and anti-Vb17 antibodies (Becton and Dickinson, USA). The proportions of cells expressing these surface markers were examined by a fluoresecence activated cell sorter (FACS), and were calculated as the percentages of positively stained cells among 10,000 cells enumerated.

[5] = test system: TAA-induced liver cirrhosis in Wistar rats; assay: Thioacetamide (TAA)-induced liver cirrhosis in rats, liver histopathology; type: in vivo, rat
Protocol: Liver cirrhosis was induced in rats by intraperitoneal (i.p.) administration of TAA 200 mg/kg twice weekly for 12 weeks, as previously described (1, 2).
The FTS was dissolved in PBS and administered i.p. 3 times a week to rats according to their assigned groups. Four groups containing 6 rats each were treated as follows. One group received TAA 200 mg/kg i.p. twice a week and i.p. injections of PBS 3 days a week for 12 weeks (cirrhotic controls for the FTS-treated groups). A second group received TAA for 12 weeks and FTS 5 mg/kg, 3 times a week. […] The two control groups consisted of one that received PBS injections without TAA for 12 weeks (normal controls) and a group of 5 rats that received only FTS 5 mg/kg i.p. for 12 weeks to monitor the appearance of adverse effects.
The rats were sacrificed at the completion of the treatment protocols. Their livers were removed and midsections of the left lobes of the livers were processed for light microscopy. This processing consisted of fixing the specimens in a 5% neutral formol solution, embedding the specimens in paraffin, making sections of 5 μm thickness, and staining the sections with hematoxylin and eosin. Reticulin stain was performed to enhance the visualization of the extent and distribution of liver fibrosis. The tissue slices were scanned and scored by two expert pathologists who were not aware of the sample source. The degree of inflammation and fibrosis was expressed as the mean of 10 different fields in each slide that had been classified on a scale of 0-3 according to Muller, et al(3).

human HSC = assay: PDGF-stimulated DNA synthesis ([3H]TdR) in human hepatic stellate cells; type: cell-based; settings: PDGF-BB 10 ng/ml; 24 h FTS
Protocol: Human HSCs were isolated from wedge sections of normal human liver unsuitable for transplantation as previously reported (6, 7). Briefly, after a combined digestion with collagenase/pronase, HSCs were separated from other liver nonparenchymal cells by ultracentrifugation over gradients of stractan (Cellsep™ isotonic solution, Larex Inc., St. Paul, Minn.). Extensive characterization was performed as described in (7). Cells were cultured on plastic culture dishes (Falcon, Becton Dickinson, Lincoln Park, N.J.) in Iscove's modified Dulbecco's medium supplemented with 0.6 U/ml insulin, 2.0 mmol/L glutamine, 0.1 mmol/L nonessential amino acids, 1.0 mmol/L sodium pyruvate, antibiotic antifungal solution (all provided by Gibco Laboratories, Grand Island, N.Y.) and 20% fetal bovine serum (Imperial Laboratories, Andover, U.K.). Experiments described in this study were performed on cells between third and fifth serial passages (1:3 split ratio) using three independent cell lines.
DNA synthesis was measured as the amount of [Methyl-^3H]thymidine ([^3 H]TdR) incorporated into trichloroacetic acid-precipitable material. […] At the end of the pulsing period, [^3H]TdR incorporation into cellular DNA was measured as previously reported (8). Cell number was determined in three separate wells from each dish and results were expressed as cpm/10^5 cells.

EAN in Lewis rats [6] = assay: EAN rats, electrophysiology (tail nerve stimulation, CMAP); type: in vivo, rat; settings: day 20; FTS for 10 or 28 days
Protocol: The animal was anesthetized with phenobarbital. […] Previous experience has shown that smaller amounts are necessary during the acute EAN disease phase in order to avoid mortality. Mono-polar needle electrodes were used to stimulate the sciatic nerve and the response was measured in the plantar muscle by a surface ring electrode (8). Alternatively, the tail nerves were stimulated and tail muscle response measured by the same electrodes. […] The tail response was therefore be used in the early disease stage (days 18-22). The latency of responses to distal and proximal stimulation were used to calculate nerve conduction velocity. The amplitude of the responses was used to assess conduction block. Electrophysiological assays were performed on day 20 in the 3 groups of rats described in the previous section.

[7] = FTS 5 mg/kg/day i.p. days 0-10 only
[8] = FTS 5 mg/kg alone, 12 weeks, no TAA
[9] = TAA + FTS 5 mg/kg 3 times/week for 12 weeks

**Q.** Which “suppression of the LPS mitogenic response” value (lymphocytes of EAE mice) does the source give for `CC(C)=CCC/C(C)=C/CC/C(C)=C/CSc1ccccc1C(=O)O` [FTS, farnesyl thiosalicylic acid] here?
**A.** 91%

**Q.** What about the “suppression of the PLP mitogenic response” value (lymphocytes of EAE mice) of the same molecule?
**A.** 62%

**Q.** And the “solubility in water / saline” value [1]?
**A.** insoluble in water

**Q.** And the recovery (EAN in Lewis rats [2]; [7])?
**A.** recovered faster than the other groups

**Q.** What about the severity of disease (EAN in Lewis rats [2]; [7]) of the same molecule?
**A.** equal severity to controls

**Q.** And the “clinical score / rotarod, peak of disease” value (EAN in Lewis rats [2]; FTS 5 mg/kg/day i.p. days 0-28)?
**A.** significantly ameliorated the peak of disease

**Q.** And the “rats with brief relapses of clinical signs during recovery” value (EAN in Lewis rats [2]; FTS days 0-10 only)?
**A.** Three of the 5 rats

**Q.** And the recovery (EAN in Lewis rats [2]; treatment from day 10)?
**A.** recovered significantly faster

**Q.** And the “Mean clinical scores for days 15-19” value (EAN in Lewis rats [2]; treatment from day 10, ±SE, n=10, control 4.12±0.61)?
**A.** 2.74±0.66

**Q.** What about the “anti-ApoH, anti-ds DNA and anti-phosphatidyl-ethanolamine levels” value [3] of the same molecule?
**A.** significant effect of FTS treatment

**Q.** What about the “proportion of lymphocytes expressing CD3” value [4] of the same molecule?
**A.** 94.2 ± 2.7

**Q.** What about the “proportion of lymphocytes expressing CD4” value [4] of the same molecule?
**A.** 51.6 ± 1.9

**Q.** What about the “proportion of lymphocytes expressing CD8” value [4] of the same molecule?
**A.** 26.2 ± 9.2

**Q.** What about the “proportion of lymphocytes expressing CD62L” value [4] of the same molecule?
**A.** 67.1 ± 7.3

**Q.** And the “proportion of lymphocytes expressing IA-k” value [4]?
**A.** 28.3 ± 3.2

**Q.** And the “proportion of lymphocytes expressing Vb17” value [4]?
**A.** 11.3 ± 2.1

**Q.** And the “Fibrotic septa (0-3)” value [5, 8]?
**A.** 0

**Q.** And the “Nodule formation (0-3)” value [5, 8]?
**A.** 0

**Q.** What about the “Fibrotic septa (0-3)” value [5, 9] of the same molecule?
**A.** 0.9±0.5

**Q.** What about the “Nodule formation (0-3)” value [5, 9] of the same molecule?
**A.** 0.7 ± 0.6

**Q.** And the “FTS concentration affecting PDGF-stimulated 3H-thymidine incorporation into DNA” value (human HSC)?
**A.** 25 to 50 µM

**Q.** What about the “compound muscle action potentials (CMAPs), tail muscle” value (EAN in Lewis rats [6]) of the same molecule?
**A.** significant amelioration
